Measurements as given in patent US20030220396A1, “Method for treating ocular hypertension and glaucoma” (SUCAMPO AG, priority 2002, published 2003).

How the values were obtained:
Type in all cases: in vivo
[1] = system: intraocular pressure (IOP); experiment: IOP lowering after instillation of ophthalmic solution in cynomolgus monkeys (Example 1); conditions: for ΔIOP · AUC0-24 h Mean ± S.E.: 0.001 w/v% solution, 30 μL/eye
Procedure: (§1) In the following examples, the osmolarity was measured by means of OSMOMETER (Model OM-801, VOGEL) at room temperature.
Two kinds of test ophthalmic solutions each containing 0.001 w/v% of test substance 1 (13,14-dihydro-15-keto-17-phenyl-18,19,20-trinor-PGF2αisopropyl ester), which is 15-keto-prostaglandin compound having a ring structure at the end of the ω chain were prepared. The osmolarity ratio of one solution was adjusted to 0.7 (osmolarity: 200 mOsm) and the other was adjusted to 1.0 (osmolarity: 286 mOsm). Nine cynomolgus monkeys were used for the example. One of the test solutions was instilled (30 μL/eye) into one eye of the monkey, and one week after, the other test solution was instilled (30 μL/eye) into the same eye.

[2] = system: intraocular pressure (IOP); experiment: IOP lowering after instillation of ophthalmic solution in cynomolgus monkeys (Example 2); conditions: for ΔIOP · AUC0-24 h Mean ± S.E.: 0.001 w/v% solution, 30 μL/eye, in mmHg·h (unit assumed)
Procedure: as §1
Three kinds of ophthalmic solutions each containing 0.001 w/v% of test substance 1 were prepared and used. The osmolarity ratio of the solutions were adjusted to 0.8 (osmolarity: 229 mOsm), 1.0 (osmolarity: 286 mOsm) and 1.3 (osmolarity: 372 mOsm) respectively. Eight cynomolgus monkeys were used for this example. Test solutions were instilled to the monkey in the same manner as Example 1, i.e. 30 μL/eye of each solution was serially instilled to same eye with one-week intervals between the instillations.

[3] = system: intraocular pressure (IOP); experiment: IOP lowering after instillation of ophthalmic solution in white rabbit (Comparative Example); conditions: for ΔIOP · AUC0-6 h Mean ± S.E.: 0.05 w/v% solution, 35 μL/eye, in mmHg·h (unit assumed)
Procedure: as §1
Three kinds of ophthalmic solutions each containing 0.05 w/v% of test substance 2 (13,14-dihydro-15-keto-20-ethyl-PGF2αisopropyl ester), which is a 15-keto-prostaglandin compound having a linear structure at the end of the ω chain, were prepared and used. The osmolarity ratio of the solutions were adjusted to 0.3 (osmolarity: 86 mOsm), 0.7 (osmolarity: 200 mOsm) and 1.0 (osmolarity: 286 mOsm), respectively. Each of the test solutions (35 μL/eye) was instilled serially into one eye of a white rabbit with one-week intervals between the installations.

[4] = osmolarity ratio 1.0 (286 mOsm)

Structure (SMILES) | ΔIOP · AUC0-24 h Mean ± S.E. ([1]; osmolarity ratio 0.7 (200 mOsm), in mmHg·h (unit assumed)) | ΔIOP · AUC0-24 h Mean ± S.E. ([1]; osmolarity ratio 1.0 (286 mOsm), p < 0.05 vs ratio 0.7, in mmHg·h (unit assumed)) | IOP lowering effect, comparison in words ([1]; osmolarity ratio 1.0 compared with osmolarity ratio 0.7, 0.001 w/v%) | ΔIOP · AUC0-24 h Mean ± S.E. ([2]; osmolarity ratio 0.8 (229 mOsm)) | ΔIOP · AUC0-24 h Mean ± S.E. [2, 4] | ΔIOP · AUC0-24 h Mean ± S.E. ([2]; osmolarity ratio 1.3 (372 mOsm)) | IOP lowering effect, comparison in words ([2]; osmolarity ratio 1.0 compared with osmolarity ratio 0.8 and 1.3, 0.001 w/v%) | ΔIOP · AUC0-6 h Mean ± S.E. ([3]; osmolarity ratio 0.3 (86 mOsm)) | ΔIOP · AUC0-6 h Mean ± S.E. ([3]; osmolarity ratio 0.7 (200 mOsm)) | ΔIOP · AUC0-6 h Mean ± S.E. [3, 4] | IOP lowering effect, comparison in words ([3]; osmolarity ratio 0.3, 0.7 and 1.0 compared, 0.05 w/v%)
CC(C)OC(=O)CCC/C=C\C[C@@H]1[C@@H](CCC(=O)CCc2ccccc2)[C@H](O)C[C@@H]1O [Test Substance 1, 13,14-dihydro-15-keto-17-phenyl-18,19,20-trinor-PGF2αisopropyl ester] | 22.8 ± 11.8 | 55.1 ± 10.7 | significantly greater IOP lowering effect | 41.1 ± 18.7 | 62.3 ± 19.3 | 37.9 ± 14.8 | greater IOP lowering effect |  |  |  | 
CCCCCCCC(=O)CC[C@@H]1[C@@H](C/C=C\CCCC(=O)OC(C)C)[C@@H](O)C[C@H]1O [Test Substance 2, 13,14-dihydro-15-keto-20-ethyl-PGF2αisopropyl ester] |  |  |  |  |  |  |  | 18.9 ± 4.4 | 22.5 ± 5.1 | 20.3 ± 4.6 | substantially the same IOP lowering effect
